Values after ≈ are worked out from the molar mass of the structure shown.
How the values were obtained:
Bacillus subtilis [1] = test: Antibacterial activity against Bacillus subtilis after 24 hrs by UV-vis spectrophotometric method; format: functional
Pseudomonas aeruginosa [2] = test: Antibacterial activity against Pseudomonas aeruginosa after 24 hrs by UV-vis spectrophotometric method; format: functional
Bacillus subtilis [3] = test: Antibacterial activity against Bacillus subtilis assessed as diameter of inhibition zone measured after 24 hrs by agar well diffusion method; format: functional
[4] = Cytotoxicity against rat PC12 cells after 24 hrs by MTT assay; format: cell-based, PC-12; conditions: for MNTC at 24 h: read-out: MNCC
Escherichia coli [5] = test: Antibacterial activity against Escherichia coli assessed as diameter of inhibition zone measured after 24 hrs by agar well diffusion method; format: functional
[6] = Cytotoxicity against rat PC12 cells assessed as cell viability at MNTC after 24 hrs by MTT assay relative to control; format: cell-based, PC-12; conditions: read-out: Activity
[7] = Cytotoxicity against rat PC12 cells assessed as cell viability at CC50 after 24 hrs by MTT assay relative to control; format: cell-based, PC-12; conditions: read-out: Activity
Staphylococcus aureus [8] = test: Antibacterial activity against Staphylococcus aureus assessed as diameter of inhibition zone measured after 24 hrs by agar well diffusion method; format: functional
Staphylococcus aureus [9] = test: Antibacterial activity against Staphylococcus aureus after 24 hrs by UV-vis spectrophotometric method; format: functional
Pseudomonas aeruginosa [10] = test: Antibacterial activity against Pseudomonas aeruginosa assessed as diameter of inhibition zone measured after 24 hrs by agar well diffusion method; format: functional
Escherichia coli [11] = test: Antibacterial activity against Escherichia coli after 24 hrs by UV-vis spectrophotometric method; format: functional
PC-12 [12] = test: Neuroprotective activity against H2O2-induced cytotoxicity in rat PC12 cells assessed as cell viability at EC50 pretreated for 24 hrs followed by H2O2 addition by MTT assay relative to control; format: functional
PC-12 [13] = test: Neuroprotective activity against H2O2-induced cytotoxicity in rat PC12 cells assessed as increase in cell viability pretreated for 24 hrs followed by H2O2 addition by MTT assay; format: functional, cell-based

Molecule	MIC (Bacillus subtilis [1]) [µg/mL]	MIC (Pseudomonas aeruginosa [2]) [µg/mL]	diameter of the inhibition zone (DIZ) (Bacillus subtilis [3]) [mm]	CC50 at 24 h [4] [µg/mL]	MNTC at 24 h [4] [µg/mL]	diameter of the inhibition zone (DIZ) (Escherichia coli [5]) [mm]	viability at 24 h [6] [%]	viability at 24 h [7] [%]	diameter of the inhibition zone (DIZ) (Staphylococcus aureus [8]) [mm]	MIC (Staphylococcus aureus [9]) [µg/mL]	diameter of the inhibition zone (DIZ) (Pseudomonas aeruginosa [10]) [mm]	MIC (Escherichia coli [11]) [µg/mL]	Activity (PC-12 [12]) [%]	Activity (PC-12 [13])	EC50 (PC-12 [13]) [µg/mL]
Cc1c(-c2nnc(-c3ccccc3)o2)sc2ncnc(N3CCCCC3)c12	0.0128 (≈ 0.0339 µM)	0.0144 (≈ 0.0381 µM)	14	146 (≈ 387 µM)	100	10	99.2	54.1	11	0.0125 (≈ 0.0331 µM)	13	0.0132 (≈ 0.035 µM)	76.88	Dose-dependent effect	22.1 (≈ 58.6 µM)
COc1cccc(N2CCN(CC#CCOC(=O)c3sc4ncnc(N5CCOCC5)c4c3C)CC2)c1	0.012 (≈ 0.023 µM)	0.0124 (≈ 0.0238 µM)	16	161 (≈ 308 µM)	114	14	98.1	50	12	0.0311 (≈ 0.0596 µM)	14	0.501 (≈ 0.96 µM)	76.78	Dose-dependent effect	38.4 (≈ 73.6 µM)
Cc1ccc(C#N)c(N2CCN(CC#CCOC(=O)c3sc4ncnc(N5CCCCC5)c4c3C)CC2)c1	0.0312 (≈ 0.059 µM)	0.0624 (≈ 0.118 µM)	13	114 (≈ 216 µM)	96	15	98.2	49	13	0.122 (≈ 0.231 µM)	14	0.0144 (≈ 0.0272 µM)	76.04	Dose-dependent effect	38.2 (≈ 72.2 µM)
Cc1c(-c2nnc(-c3ccc(Cl)cc3)o2)sc2ncnc(N3CCOCC3)c12	0.0144 (≈ 0.0348 µM)	0.0144 (≈ 0.0348 µM)	18	168 (≈ 406 µM)	120	13	98.3	51.1	13	0.0136 (≈ 0.0329 µM)	18	0.0172 (≈ 0.0416 µM)	77.18	Dose-dependent effect	28.2 (≈ 68 µM)
Cc1c(C(=O)OCC#CCN2CCN(c3cc(C4CC4)ccc3C#N)CC2)sc2ncnc(N3CCCCC3)c12	0.0581 (≈ 0.105 µM)	0.0686 (≈ 0.124 µM)	16	148 (≈ 267 µM)	110	17	99.6	50.1	14	0.0422 (≈ 0.0761 µM)	17	0.521 (≈ 0.939 µM)	75.14	Dose-dependent effect	16.2 (≈ 29.2 µM)
Cc1c(-c2nnc(-c3ccccc3)o2)sc2ncnc(N3CCOCC3)c12	0.0366 (≈ 0.0965 µM)	0.0186 (≈ 0.049 µM)	12	200 (≈ 527 µM)	160	16	99.5	50.4	16	0.0412 (≈ 0.109 µM)	11	0.0211 (≈ 0.0556 µM)	76.18	Dose-dependent effect	10.6 (≈ 27.9 µM)
Cc1c(C(=O)OCC#CCN2CCN(c3ccc(Br)cc3C#N)CC2)sc2ncnc(N3CCCCC3)c12	0.0186 (≈ 0.0313 µM)	0.0112 (≈ 0.0189 µM)	16	136 (≈ 230 µM)	96	14	99.1	51.2	13	0.0124 (≈ 0.0209 µM)	15	0.0244 (≈ 0.0411 µM)	76.18	Dose-dependent effect	40.9 (≈ 68.8 µM)
COc1ccc(N2CCN(CC#CCOC(=O)c3sc4ncnc(N5CCCCC5)c4c3C)CC2)cc1	0.0158 (≈ 0.0304 µM)	0.0614 (≈ 0.118 µM)	11	140 (≈ 269 µM)	80	11	99.4	49.4	13	0.313 (≈ 0.602 µM)	10	0.622 (≈ 1.2 µM)	76.16	Dose-dependent effect	35.3 (≈ 67.9 µM)
Cc1ccc(-c2nnc(-c3sc4ncnc(N5CCOCC5)c4c3C)o2)cc1	0.0464 (≈ 0.118 µM)	0.0442 (≈ 0.112 µM)	15	86.1 (≈ 219 µM)	68	18	97.6	49.2	18	0.0546 (≈ 0.139 µM)	14	0.0132 (≈ 0.0335 µM)	74.2	Dose-dependent effect	26.6 (≈ 67.6 µM)
Cc1c(-c2nnc(-c3ccc(Cl)cc3)o2)sc2ncnc(N3CCCCC3)c12	0.0284 (≈ 0.0689 µM)	0.144 (≈ 0.35 µM)	13	151 (≈ 366 µM)	136	15	98.2	48.9	16	0.0224 (≈ 0.0544 µM)	14	0.186 (≈ 0.452 µM)	75.04	Dose-dependent effect	21.8 (≈ 53 µM)
COc1ccc(N2CCN(CC#CCOC(=O)c3sc4ncnc(N5CCOCC5)c4c3C)CC2)cc1	0.062 (≈ 0.119 µM)	0.062 (≈ 0.119 µM)	12	144 (≈ 276 µM)	60	12	98.1	49.1	8	0.062 (≈ 0.119 µM)	14	0.12 (≈ 0.23 µM)	74.89	Dose-dependent effect	36.2 (≈ 69.3 µM)
COc1ccc(-c2nnc(-c3sc4ncnc(N5CCOCC5)c4c3C)o2)cc1	0.0112 (≈ 0.0274 µM)	0.044 (≈ 0.107 µM)	13	140 (≈ 342 µM)	120	12	98.3	51.9	12	0.0132 (≈ 0.0322 µM)	16	0.012 (≈ 0.0293 µM)	75.15	Dose-dependent effect	28.2 (≈ 68.8 µM)
Cc1c(-c2nnc(-c3ccc([N+](=O)[O-])cc3)o2)sc2ncnc(N3CCCCC3)c12	0.0641 (≈ 0.152 µM)	0.0382 (≈ 0.0904 µM)	18	145 (≈ 343 µM)	125	14	99	49.9	8	0.044 (≈ 0.104 µM)	17	0.0361 (≈ 0.0854 µM)	74.78	Dose-dependent effect	11.9 (≈ 28.1 µM)
Cc1c(C(=O)OCC#CCN2CCN(c3cc(C4CC4)ccc3C#N)CC2)sc2ncnc(N3CCOCC3)c12	0.124 (≈ 0.223 µM)	0.0634 (≈ 0.114 µM)	10	198 (≈ 356 µM)	150	12	99.1	49.9	13	0.312 (≈ 0.56 µM)	13	0.186 (≈ 0.334 µM)	75.15	Dose-dependent effect	12.4 (≈ 22.3 µM)
GENTAMICIN	0.0386	0.0242	–	–	–	–	–	–	–	0.0422	–	0.0212	–	–	–
Cc1ccc(C#N)c(N2CCN(CC#CCOC(=O)c3sc4ncnc(N5CCOCC5)c4c3C)CC2)c1	0.0156 (≈ 0.0294 µM)	0.0624 (≈ 0.118 µM)	13	146 (≈ 275 µM)	118	13	98.5	49.1	7	0.062 (≈ 0.117 µM)	14	0.0324 (≈ 0.0611 µM)	74.98	Dose-dependent effect	41.3 (≈ 77.9 µM)
COc1cccc(N2CCN(CC#CCOC(=O)c3sc4ncnc(N5CCCCC5)c4c3C)CC2)c1	0.521 (≈ 1 µM)	0.0842 (≈ 0.162 µM)	13	144 (≈ 278 µM)	96	13	98.2	51	10	0.0244 (≈ 0.047 µM)	14	0.0384 (≈ 0.0739 µM)	75.08	Dose-dependent effect	40.4 (≈ 77.8 µM)

Reference: ChEMBL document CHEMBL4219188, “Design, synthesis, neuroprotective, antibacterial activities and docking studies of novel thieno[2,3-d]pyrimidine-alkyne Mannich base and oxadiazole hybrids” (Bioorg Med Chem Lett, 2018)
